In brackets after ≈: the same amount, converted by molar mass.
Legend:
Type in all cases: physicochemical
[1] = In vitro deposition test, FPD/FPF by Multi-stage Liquid Impinger (tobramycin formulations); settings: Table 11, loaded dose = 15 mg, Cyclohaler 100 l/min 2.4 s, n = 3
Description: The Fine Particle Dose has been determined by the method described in the European Pharmacopoeia 4 for the aerodynamic assessment of fine particle, using Apparatus C—Multi-stage Liquid Impinger (MsLI) […] The flow rate was adjusted to a pressure drop of 4 kPa, as typical for inspiration by a patient, resulting in a flow rate of 100 l/min during 2.4 seconds. At least 3 FPD determinations were performed on each formulation and analysis were carried out by a suitable and validated analytical HPLC method. In order to increase the UV absorptivity of the molecule, a derivatization method was applied. The suitable and validated quantification method is described in the USP 25. The HPLC system consisted of a High Performance Liquid Chromatography system (HP 1100 series, Agilent technologies, Belgium), equipped with a quartenary pump, an autosampler and a variable wavelength UV detector set at 360 nm. The separation system was a 39 cm×3.9 mm stainless steel (5 μm particle size) reversed-phase C18 column (Alltima, Alltech, Belgium). Samples of 20 μl volume were injected. The mobile phase was prepared by dissolving 2 g of Tris(hydroxymethyl)aminomethane in 800 ml of water. […] The mass of test substance deposited on each stage was determined from the HPLC analysis of the recovered solutions. […] It is considered to be directly proportional to the amount of drug able to reach the pulmonary tract in vivo, and consequently, the higher the value FPD, the higher the estimated lung deposition.

[2] = Particle size distribution by laser diffraction (Mastersizer 2000, dry sampling)
Description: For each SLP composition, the particle size distribution is measured by laser diffractometry, using a dry sampling system with a suitable SOP (Standard Operating Procedure), (Scirocco®, Mastersizer 2000, Malvern, UK).
The size distributions are expressed in terms of the mass median diameter d(0.5), i.e. the size in microns which 50% of the sample is smaller and 50% is larger, and in terms of the volume (mass) mean diameter D[4,3].

[3] = Solubility in isopropanol; settings: organic solvent or mixture

Question: Which FPD [1] does the source give for `NC[C@H]1O[C@H](O[C@H]2[C@H](O)[C@@H](O[C@H]3O[C@H](CO)[C@@H](O)[C@H](N)[C@H]3O)[C@H](N)C[C@@H]2N)[C@H](N)C[C@@H]1O` [Tobra μ, tobramycin] here?
Answer: 7.2 ± 0.6 mg

Question: What about the FPF [1] of the same compound?
Answer: 48.1 ± 0.4%

Question: And the FPF ([1]; listed as uncoated micronized tobramycin)?
Answer: around 48%

Question: And the “d (0.5)” value ([2]; Table 10, Example 13, dry powder form, mean ± S.D., n = 3)?
Answer: 1.29 ± 0.02 μm

Question: And the “D [4, 3]” value ([2]; Table 10, Example 13, dry powder form, n = 3)?
Answer: 1.54 ± 0.01 μm

Question: What about the “% <5.0 μm” value ([2]; Table 10, Example 13, n = 3) of the same compound?
Answer: 99.3 ± 0.2%

Question: And the solubility [3]?
Answer: 50 µg/mL (≈ 107 µM)
